Data reported in US20150141435A1, “2-PYRIDONE ANTIMICROBIAL COMPOSITIONS” (Emergent BioSolutions, priority 2010, published 2015).
In brackets after ≈: the same amount, converted by molar mass. Like-named read-outs stand apart in the source and are kept apart here.

Legend:
[1] = test system: S. aureus BAA-1720 (MRSA, FQ-R); assay: MIC, CLSI broth microdilution (Table 1); assay type: cell-based; settings: Staphylococcus aureus; Gram positive; MHB, 37° C., 16-20 hours; read-out: MIC S. aureus BAA-1720 (MRSA, FQ-R)
[2] = test system: Klebsiella pneumonia (4 strains); assay: MIC range, broader panel incl. clinical isolates (Table 4); assay type: cell-based; settings: Klebsiella pneumoniae
[3] = test system: Acinetobacter baumannii (12 strains); assay: as above; assay type: cell-based; settings: Median of 12 strains
[4] = test system: Staphylococcus aureus (16 strains); assay: MIC range, broader panel incl. clinical isolates (Table 3); assay type: cell-based; settings: Staphylococcus aureus
[5] = test system: Streptococcus pneumonia (5 strains); assay: as above; assay type: cell-based; settings: Streptococcus pneumoniae
[6] = test system: Group C Streptococcus (4 strains); assay: as above; assay type: cell-based
[7] = test system: Haemophilus influenza (5 strains); assay: MIC range, broader panel incl. clinical isolates (Table 4); assay type: cell-based, Haemophilus influenzae
[8] = test system: Streptococcus pyogenes (4 strains); assay: MIC range, broader panel incl. clinical isolates (Table 3); assay type: cell-based
[9] = test system: Enterococcus faecium (3 strains); assay: as above; assay type: cell-based
[10] = test system: Enterococcus faecalis (5 strains); assay: as above; assay type: cell-based
[11] = test system: Burkholderia cepacia (5 strains); assay: MIC range, broader panel incl. clinical isolates (Table 4); assay type: cell-based; settings: Burkholderia cepacia
E. faecium ATCC 19434 = assay: MIC, CLSI broth microdilution (Table 1); assay type: cell-based; settings: Enterococcus faecium, ATCC19434; Gram positive; MHB, 37° C., 16-20 hours; read-out: MIC E. faecium ATCC 19434
S. aureus ATCC 25923 = assay: MIC, CLSI broth microdilution (Table 1); assay type: cell-based; settings: Staphylococcus aureus, ATCC25923; Gram positive; MHB, 37° C., 16-20 hours; read-out: MIC S. aureus ATCC 25923
H. influenzae ATCC 49247 = assay: MIC, CLSI broth microdilution (Table 2); assay type: cell-based; settings: Haemophilus influenzae, ATCC49247; Gram negative; MHB, 37° C., 16-20 hours; read-out: MIC H. influenzae ATCC 49247
[12] = test system: S. maltophilia ATCC 17677; assay: MIC, CLSI broth microdilution (Table 2); assay type: cell-based; settings: Stenotrophomonas maltophilia, ATCC17677; Gram negative; MHB, 37° C., 16-20 hours; read-out: MIC S. maltophilia ATCC 17677
A. baumannii ATCC 19606 = assay: MIC, CLSI broth microdilution (Table 2); assay type: cell-based; settings: Acinetobacter baumannii, ATCC19606; Gram negative; MHB, 37° C., 16-20 hours; read-out: MIC A. baumannii B. ATCC 19606
S. pneumonia ATCC 49619 = assay: MIC, CLSI broth microdilution (Table 1); assay type: cell-based; settings: Streptococcus pneumoniae, ATCC49619; Gram positive; MHB, 37° C., 16-20 hours; read-out: MIC S. pneumonia ATCC 49619
[13] = test system: S. aureus ATCC 43300 (MRSA, FQ-S); assay: MIC, CLSI broth microdilution (Table 1); assay type: cell-based; settings: Staphylococcus aureus; Gram positive; MHB, 37° C., 16-20 hours; read-out: MIC S. aureus ATCC 43300 (MRSA, FQ-S)
[14] = test system: Pseudomonas aeruginosa (12 strains); assay: MIC range, broader panel incl. clinical isolates (Table 4); assay type: cell-based
[15] = test system: Escherichia coli (6 strains); assay: as above; assay type: cell-based
E. faecalis ATCC 29212 = assay: MIC, CLSI broth microdilution (Table 1); assay type: cell-based; settings: Enterococcus faecalis, ATCC29212; Gram positive; MHB, 37° C., 16-20 hours; read-out: MIC E. faecalis ATCC 29212
K. pneumoniae ATCC 33495 = assay: MIC, CLSI broth microdilution (Table 2); assay type: cell-based; settings: Klebsiella pneumoniae, ATCC33495; Gram negative; MHB, 37° C., 16-20 hours; read-out: MIC K. pneumoniae ATCC 33495

C[C@H]1COc2c(N3CCN(C)CC3)c(F)cc3c(=O)c(C(=O)O)cn1c23 [Levofloxacin]
MIC [1]: > 8 µg/mL | MIC ([2]; High of 4 strains, read-out: MIC Range High, Klebsiella pneumonia (4 strains)): 2 µg/mL (≈ 5.53 µM) | MIC ([2]; Low of 4 strains, read-out: MIC Range Low, Klebsiella pneumonia (4 strains)): 0.03 µg/mL (≈ 0.083 µM) | MIC50 ([2]; Median of 4 strains): 2 µg/mL (≈ 5.53 µM) | MIC50 [3]: ≥ 16 µg/mL | MIC ([4]; High of 16 strains, read-out: MIC Range High, Staphylococcus aureus (16 strains)): ≥ 16 µg/mL | MIC ([4]; Low of 16 strains, read-out: MIC Range Low, Staphylococcus aureus (16 strains)): 0.12 µg/mL (≈ 0.332 µM) | MIC50 ([4]; Median of 16 strains): 0.25 µg/mL (≈ 0.692 µM) | MIC ([5]; High of 5 strains, read-out: MIC Range High, Streptococcus pneumonia (5 strains)): 2 µg/mL (≈ 5.53 µM) | MIC ([5]; Low of 5 strains, read-out: MIC Range Low, Streptococcus pneumonia (5 strains)): 0.5 µg/mL (≈ 1.38 µM) | MIC50 ([5]; Median of 5 strains): 1 µg/mL (≈ 2.77 µM) | MIC ([6]; High of 4 strains, read-out: MIC Range High, Group C Streptococcus (4 strains)): 1 µg/mL (≈ 2.77 µM) | MIC ([6]; Low of 4 strains, read-out: MIC Range Low, Group C Streptococcus (4 strains)): 0.5 µg/mL (≈ 1.38 µM) | MIC50 ([6]; Median of 4 strains): 0.75 µg/mL (≈ 2.08 µM) | MIC ([7]; High of 5 strains, read-out: MIC Range High, Haemophilus influenza (5 strains)): 0.015 µg/mL (≈ 0.0415 µM) | MIC ([7]; Low of 5 strains, read-out: MIC Range Low, Haemophilus influenza (5 strains)): 0.008 µg/mL (≈ 0.0221 µM) | MIC50 ([7]; Median of 5 strains): 0.015 µg/mL (≈ 0.0415 µM) | MIC ([8]; High of 4 strains, read-out: MIC Range High, Streptococcus pyogenes (4 strains)): 2 µg/mL (≈ 5.53 µM) | MIC ([8]; Low of 4 strains, read-out: MIC Range Low, Streptococcus pyogenes (4 strains)): 0.5 µg/mL (≈ 1.38 µM) | MIC50 ([8]; Median of 4 strains): 0.75 µg/mL (≈ 2.08 µM) | MIC ([9]; High of 3 strains, read-out: MIC Range High, Enterococcus faecium (3 strains)): ≥ 16 µg/mL | MIC ([9]; Low of 3 strains, read-out: MIC Range Low, Enterococcus faecium (3 strains)): 2 µg/mL (≈ 5.53 µM) | MIC50 ([9]; Median of 3 strains): ≥ 16 µg/mL | MIC ([10]; High of 5 strains, read-out: MIC Range High, Enterococcus faecalis (5 strains)): ≥ 16 µg/mL | MIC ([10]; Low of 5 strains, read-out: MIC Range Low, Enterococcus faecalis (5 strains)): 1 µg/mL (≈ 2.77 µM) | MIC50 ([10]; Median of 5 strains): 2 µg/mL (≈ 5.53 µM) | MIC ([11]; High of 5 strains, read-out: MIC Range High, Burkholderia cepacia (5 strains)): 2 µg/mL (≈ 5.53 µM) | MIC ([11]; Low of 5 strains, read-out: MIC Range Low, Burkholderia cepacia (5 strains)): 1 µg/mL (≈ 2.77 µM) | MIC50 ([11]; Median of 5 strains): 2 µg/mL (≈ 5.53 µM) | MIC (E. faecium ATCC 19434): 8 µg/mL (≈ 22.1 µM) | MIC (S. aureus ATCC 25923): 0.25 µg/mL (≈ 0.692 µM) | MIC (H. influenzae ATCC 49247): 0.016 µg/mL (≈ 0.0443 µM) | MIC [12]: 0.25 µg/mL (≈ 0.692 µM) | MIC (A. baumannii ATCC 19606): 0.25 µg/mL (≈ 0.692 µM) | MIC (S. pneumonia ATCC 49619): 0.5 µg/mL (≈ 1.38 µM) | MIC [13]: 0.125 µg/mL (≈ 0.346 µM) | MIC ([14]; High of 12 strains, read-out: MIC Range High, Pseudomonas aeruginosa (12 strains)): ≥ 16 µg/mL | MIC ([14]; Low of 12 strains, read-out: MIC Range Low, Pseudomonas aeruginosa (12 strains)): 1 µg/mL (≈ 2.77 µM) | MIC50 ([14]; Median of 12 strains): ≥ 16 µg/mL | MIC ([15]; High of 6 strains, read-out: MIC Range High, Escherichia coli (6 strains)): ≥ 16 µg/mL | MIC ([15]; Low of 6 strains, read-out: MIC Range Low, Escherichia coli (6 strains)): 0.015 µg/mL (≈ 0.0415 µM) | MIC50 ([15]; Median of 6 strains): ≥ 16 µg/mL | MIC (E. faecalis ATCC 29212): 1 µg/mL (≈ 2.77 µM) | MIC (K. pneumoniae ATCC 33495): 0.032 µg/mL (≈ 0.0886 µM)
